US8658677B2, “Pyridyl-2-methylamino compounds, compositions and uses thereof” (Aria Neurosciences Inc., priority 2011, dated 2014)
“Also recorded” adds a separate entry of the source.

Columns and labels:
Aβ40 [1] = experiment: Secretion of Aβ40 by 751APPSW CHO cells (sandwich ELISA); assay type: cell-based; conditions: 48 hr; for Emax: read-out: EMAX of Aβ40 production inhibition; for IC50: read-out: IC50% of Aβ40 production
Protocol: (§1) In addition to studying the effect of ARN4261 and ARN2966 on Aβ oligomerization and fibrillization, we have explored their properties in respect to the modulation of Aβ production using CHO clones stably transfected with WT human APP751 and double Swedish APP751 mutant (KM670/671NL). The results in FIGS. 3(A) and 3(B) show inhibitory effect of ARN4261 and ARN2966 on secretion of Aβ40 and Aβ42 by 751APPSW CHO cells exposed to ARN compounds for 48 hr. Values are expressed as % of Aβ40 and Aβ42 levels in conditioned media (CM) of untreated cells. FIG. 3(C) Concentrations of Aβ40 and Aβ42 in 751APPSWCHO cell CM under increasing concentrations of ARN2966. 751APPSWCHO cells secrete Aβ40 and Aβ42 in proportions 9:1, akin to the proportions of Aβ peptides produced by neurons. […] Aβ40 and Aβ42 levels were determined using sandwich ELISA where C-terminal specific anti Aβ40 and Aβ42 mAbs were used as capture Abs and biotinylated 4G8 as the detection Ab. […] We also confirmed that ARN2966 inhibited secretion of Aβ by primary neuronal cultures derived from Tg2576 AD Tg mice.

Aβ40 [2] = target: T1, Aβ40 (Homo sapiens, UniProt P05067); experiment: Thioflavin-T fibrillization assay; assay type: biochemical
T1 construct: host or cells: chemical solid-phase peptide synthesis (no expression host)
T1 sequence (P05067 672-711): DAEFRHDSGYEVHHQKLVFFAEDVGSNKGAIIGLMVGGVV
From the text: Synthetic Aβ 1-40 peptide (sequence: […]) was synthesized at the W.M. Keck Foundation Facility (Yale University, New Haven, Conn.) by solid-phase technique on a p-methyl-benzhydrylamine resin, using a Biosearch SAM 2 synthesizer and purified by high performance liquid chromatography (HPLC) with the use of a reverse-phase support medium (Delta-Bondapak) on a 0.78×30 cm column with a 0-66% linear gradient of acetonitrile in 0.1% (v/v) trifluroacetic acid, as previously described. The peptide content of the eluate was monitored by measurement of its absorption at 214 nm. To verify the sequence and purity of the peptide, linear, time-of-flight mass spectrometry was performed at the Skirball Institute at New York University. For aggregation studies the peptide was diluted in 1,1,1,3,3,3-hexafluoro-2-propanol (HFIP; Sigma St. Loius, Mo.) at a concentration of 10 mM/mL, aliquoted and lyophilized. HFIP treatment renders peptides monomeric with minimal β-sheet content. Lyophilized peptides were stored at −80° C. and resuspended immediately prior to each experiment in the appropriate diluent.
The effect of compounds of the present invention on aggregation of Aβ 1-40 peptide was tested using a Thioflavin-T assay according to previously published methods. Aggregation of Aβ 1-40 incubated alone was measured for comparison. Aβ 1-40 was HFIP treated (as described above) and reconstituted in 100 mM Tris buffer (pH 7.4) to obtain a 100 μmol/L concentration. Stock of investigational compounds (50 mmol/L stock diluted in DMSO) was added to Aβ 1-40 to achieve of a concentration 10 or 100 μmol/L of investigational compound in 100 μmol/L of Aβ 1-40. All incubations were performed over a period of 7 days at 37° C. and the incubation mixture was slowly mixed for 6 hours every 24 h. At the conclusion of the experiment samples containing 15 μg of Aβ 1-40 with and without investigational compounds were added to 1 mL of 50 mM glycine, pH 9.2 and 2 μM of Thioflavin-T (Sigma Chemical, Co.; St. Louis, Mo.). Fluorescence was measured at an excitation of 435 nm and an emission of 485 nm in a Perkin-Elmer LS-50B fluorescence spectrophotometer (Perkin Elmer Instruments, Shelton, Conn.). A time scan of fluorescence was performed and three values after the decay reached a plateau (280, 290, 300 seconds) were averaged. The background fluorescence of 40 μL of Tris buffer added to 2 μM/L of Thioflavin-T solution was subtracted. Samples were run in duplicate. Differences in amount of fibrils formed in the presence of investigational compounds were evaluated by means of one-way ANOVA followed by a Dunnet post-hoc test using Statistica (version 6.1, StatSoft Inc., OK).
[…] monomerized synthetic Aβ40 was incubated in 0.1M Tris pH 7.0, T=37° C. for 8 days in the presence of 0-100 μM concentration of compounds. […] An arrow indicates Aβ monomers clustered in ill developed protofibril. (C) Oligomerization assay. ARN4261 and ARN4224 reduced the amount of Aβ oligomers by 78% and 74%, respectively p<0.001. A compound 69b (GKLVFNmgA) was used as a positive control. 69b is homologous to Aβ sequence 17-21 and contains N-methyl glycine (Nmg), which renders it capable of anti-fibrillization and anti-oligomerization effect. (D) Principle of oligomerization assay. 100 μM Aβ40 was aggregated alone or with the addition of 10 μM of tested compounds [1:10 compound: Ab ratio] for 24 h in conditions promoting oligomers assembly, i.e., DMEM/F-12 medium+0.2% SDS, T=4° C. Prior to SDS-PAGE in non-reducing conditions samples were treated with glutaraldehyde. A strong smear of Aβ oligomers is seen between 37 and 70 KDa markers (arrows) in lane 2, and a dense band below the 25 KDa marker reflects Aβ monomers non-dissociated by 10% polyacrylamide gel. No oligomers above 37 KDa marker are seen in lane 1 containing only Aβ monomers run as a control. […] (E) TEM of Aβ oligomers. […] Yellow arrowhead indicates smaller oligomers.

APP = experiment: APP, C99, C83 and sAPP levels in 751APPSW CHO cells (immunoblot, immunostaining); assay type: cell-based, human
Aβ42 = experiment: Secretion of Aβ42 by 751APPSW CHO cells (sandwich ELISA); assay type: cell-based; conditions: 48 hr; for Emax: read-out: EMAX of Aβ42 production inhibition; for IC50: read-out: IC50% of Aβ42 production
Protocol: as §1

SMILES | Emax (Aβ40 [1]) | IC50 (Aβ40 [1]) | behaviour in anti-Aβ aggregation assays (Aβ40 [2]; compared with ARN4261) | anti-APP immunostaining with 22C11 mAb (APP; 751APPSW CHO cells) | concentrations at which reduction in APP FL level is seen (APP; 751APPSW CHO clone) | level of APP FL, C99 and C83 in cell lysates (APP; 751APPSW CHO clone) | sAPP (sAPPα and total sAPP stub) in conditioned media (APP; 751APPSW CHO clone) | level of β-actin (APP; 751APPSW CHO clone, increasing concentration) | Emax (Aβ42) | IC50 (Aβ42) | EC50 (Aβ40 [2]; 100 μM HFIP monomerized synthetic Aβ40, 0.1M Tris pH 7.0, 37° C., 8 days, 0-100 μM compound, read-out: EC50 of fibril reduction) | Emax (Aβ40 [2]; pH 7, read-out: EMAX (% of maximal fibril reduction)) | TEM analysis of Aβ fibrils (Aβ40 [2]; transmission electron microscopy)
Oc1ccccc1NCc1ccccn1 [ARN2966, 2-[(pyridine-2-ylmethyl)-amino]-phenol] | 97 ± 0.3% | 0.81 µM | behaves comparably to ARN4261 | reduced without evidence of staining redistribution; also recorded: Reduced anti-APP staining | ≥ 10 µM | reduce the level of full length APP (APP FL) and both C99 and C83 APP stubs; also recorded: reduced levels of full length APP (APP FL) and C99 and C83 APP stubs | reduced levels | no apparent change | 84.5% | 5.53 µM |  |  | 
Oc1ccccc1N=Cc1ccccn1 [ARN4261, 2-(Pyridin-2-ylmethyleneamino)-phenol] | 97.4 ± 0.25% | 0.82 µM |  |  |  | reduce the level of full length APP (APP FL) and both C99 and C83 APP stubs; also recorded: reduced levels of full length APP (APP FL) and C99 and C83 APP stubs |  |  | 98.9 ± 0.4% | 6.54 µM | 16 µM | 88% | markedly reduced density and length of Aβ fibrils
